Measured values from patent publication US8192962B2, “Processes for detecting toxic substances” (Daikin Industries, Ltd., priority 2001, dated 2012).

System: Energy system protein genes
Assay: DNA chip mRNA expression in yeast, energy system protein genes (Table 4)
Assay type: cell-based, Saccharomyces cerevisiae S288C
Protocol: Yeast (Saccharomyces cerevisiae S288C (α SUC2mal mel gap2 CUP1)) were incubated at 25° C. on YPD medium (yeast extract 1%, polypepton 2%, glucose 2%). One of toxic chemical substances was added to the cells at logarithmic growth phase, and the cells were further incubated for two hours. Cells were cultured without any chemical substance in the same condition, and were used as control. Concentrations of the chemical substances were defined to inhibit the growth of the yeast but not lead to death.
After completion of the incubation, the culture was centrifuged to collect the cells. To the cells, sodium acetate buffer (50 mM sodium acetate, 10 mM EDTA, 1% SDS) was added, and the mixture was shaken at 65° C. for five minutes, followed by returning to room temperature, and obtaining the supernatant, of which the procedures were repeated two times. To the supernatant, ½ amount of a solution of phenol/chloroform was added, and the mixture was centrifuged to give a supernatant, which was added with an equal amount of chloroform, and the mixture was centrifuged to give a supernatant. To the supernatant, an equal amount of isopropanol containing 0.3 M sodium acetate was added, and the mixture was allowed to stand at room temperature for 30 minutes, after which the mixture was centrifuged to give a sediment of the whole RNAs. Seventy % ethanol was added to the sediment, and the mixture was again centrifuged to give a sediment, which was then dried and dissolved in water. mRNA was isolated from the whole RNAs as followings. In view of the fact that a poly A chain is attached to the 3′ terminus of mRNA, a polynucleotide having a poly T structure which was immobilized on the surface of latex beads was used to trap the mRNA, and then the mRNA was washed and eluted with spine column (Oligotex-dT30<Super>mRNA Purification Kit, Takara). Reverse transcription of the mRNA was conducted with a reverse transcriptase (Super Script II Reverse Transcriptase; catalogue No. 18064-014, GibcoBRL) using fluorescence-labeled nucleotides to give cDNAs that were introduced with Cy3-dUTP or Cy5-dUTP during the reverse transcription.
The labeled cDNAs were dissolved in TE buffer (10mM Tris-HCl/1 mM EDTA, pH8.0), and the solution was dropped on the DNA chip containing the whole genes of yeast (DNA Chip Research Inc. Japan) so that the cDNAs were hybridized on the DNA chip at 65° C. for over 12 hours. The fluoresces intensity of the DNA chip was read with a scanner, and the ratio relative to the fluorescence intensity resulting from the absence of chemical substance was estimated as the following, which is shown in Tables 1 to 9: […]

[Cl][Cd][Cl] [(2), CdCl2]
The level of expressed mRNA in the presence of chemical substance/The level of expressed mRNA in the absence of chemical substance (yeast gene YAL060W): 1.8 | The level of expressed mRNA in the presence of chemical substance/The level of expressed mRNA in the absence of chemical substance (yeast gene YBL058W, cells incubated two hours with the chemical substance): 1.5 | The level of expressed mRNA in the presence of chemical substance/The level of expressed mRNA in the absence of chemical substance (yeast gene YBL099W, cells incubated two hours with the chemical substance): 0.9 | The level of expressed mRNA in the presence of chemical substance/The level of expressed mRNA in the absence of chemical substance (yeast gene YBR001C, cells incubated two hours with the chemical substance): 1.4 | The level of expressed mRNA in the presence of chemical substance/The level of expressed mRNA in the absence of chemical substance (yeast gene YBR185C, cells incubated two hours with the chemical substance): 1.0 | The level of expressed mRNA in the presence of chemical substance/The level of expressed mRNA in the absence of chemical substance (yeast gene YBR221C, cells incubated two hours with the chemical substance): 0.7 | The level of expressed mRNA in the presence of chemical substance/The level of expressed mRNA in the absence of chemical substance (yeast gene YCL040W): 5.6 | The level of expressed mRNA in the presence of chemical substance/The level of expressed mRNA in the absence of chemical substance (yeast gene YCR012W): 1.5 | The level of expressed mRNA in the presence of chemical substance/The level of expressed mRNA in the absence of chemical substance (yeast gene YCR046C, cells incubated two hours with the chemical substance): 1.2 | The level of expressed mRNA in the presence of chemical substance/The level of expressed mRNA in the absence of chemical substance (yeast gene YCR105W, cells incubated two hours with the chemical substance): 1.2 | The level of expressed mRNA in the presence of chemical substance/The level of expressed mRNA in the absence of chemical substance (yeast gene YDL021W): 1.7 | The level of expressed mRNA in the presence of chemical substance/The level of expressed mRNA in the absence of chemical substance (yeast gene YDL067C, cells incubated two hours with the chemical substance): 1.0 | The level of expressed mRNA in the presence of chemical substance/The level of expressed mRNA in the absence of chemical substance (yeast gene YDL078C, cells incubated two hours with the chemical substance): 1.1 | The level of expressed mRNA in the presence of chemical substance/The level of expressed mRNA in the absence of chemical substance (yeast gene YDL107W, cells incubated two hours with the chemical substance): 1.3 | The level of expressed mRNA in the presence of chemical substance/The level of expressed mRNA in the absence of chemical substance (yeast gene YDL174C): 1.8 | The level of expressed mRNA in the presence of chemical substance/The level of expressed mRNA in the absence of chemical substance (yeast gene YDL181W, cells incubated two hours with the chemical substance): 1.8 | The level of expressed mRNA in the presence of chemical substance/The level of expressed mRNA in the absence of chemical substance (yeast gene YDR001C): 2.2 | The level of expressed mRNA in the presence of chemical substance/The level of expressed mRNA in the absence of chemical substance (yeast gene YDR050C, cells incubated two hours with the chemical substance): 1.3 | The level of expressed mRNA in the presence of chemical substance/The level of expressed mRNA in the absence of chemical substance (yeast gene YDR079W, cells incubated two hours with the chemical substance): 1.1 | The level of expressed mRNA in the presence of chemical substance/The level of expressed mRNA in the absence of chemical substance (yeast gene YDR178W, cells incubated two hours with the chemical substance): 2.0 | The level of expressed mRNA in the presence of chemical substance/The level of expressed mRNA in the absence of chemical substance (yeast gene YDR231C): 1.6 | The level of expressed mRNA in the presence of chemical substance/The level of expressed mRNA in the absence of chemical substance (yeast gene YDR298C, cells incubated two hours with the chemical substance): 1.2 | The level of expressed mRNA in the presence of chemical substance/The level of expressed mRNA in the absence of chemical substance (yeast gene YDR377W, cells incubated two hours with the chemical substance): 1.1 | The level of expressed mRNA in the presence of chemical substance/The level of expressed mRNA in the absence of chemical substance (yeast gene YDR529C, cells incubated two hours with the chemical substance): 1.0 | The level of expressed mRNA in the presence of chemical substance/The level of expressed mRNA in the absence of chemical substance (yeast gene YEL024W, cells incubated two hours with the chemical substance): 0.9 | The level of expressed mRNA in the presence of chemical substance/The level of expressed mRNA in the absence of chemical substance (yeast gene YEL039C, cells incubated two hours with the chemical substance): 0.7 | The level of expressed mRNA in the presence of chemical substance/The level of expressed mRNA in the absence of chemical substance (yeast gene YER178W): 0.9 | The level of expressed mRNA in the presence of chemical substance/The level of expressed mRNA in the absence of chemical substance (yeast gene YFL057C): 5.9 | The level of expressed mRNA in the presence of chemical substance/The level of expressed mRNA in the absence of chemical substance (yeast gene YFR053C): 1.4 | The level of expressed mRNA in the presence of chemical substance/The level of expressed mRNA in the absence of chemical substance (yeast gene YGL018C, cells incubated two hours with the chemical substance): 1.0 | The level of expressed mRNA in the presence of chemical substance/The level of expressed mRNA in the absence of chemical substance (yeast gene YGL062W): 1.3 | The level of expressed mRNA in the presence of chemical substance/The level of expressed mRNA in the absence of chemical substance (yeast gene YGL187C, cells incubated two hours with the chemical substance): 0.8 | The level of expressed mRNA in the presence of chemical substance/The level of expressed mRNA in the absence of chemical substance (yeast gene YGL191W, cells incubated two hours with the chemical substance): 1.6 | The level of expressed mRNA in the presence of chemical substance/The level of expressed mRNA in the absence of chemical substance (yeast gene YGL205W, cells incubated two hours with the chemical substance): 0.9 | The level of expressed mRNA in the presence of chemical substance/The level of expressed mRNA in the absence of chemical substance (yeast gene YGL256W, cells incubated two hours with the chemical substance): 5.3 | The level of expressed mRNA in the presence of chemical substance/The level of expressed mRNA in the absence of chemical substance (yeast gene YGR043C): 3.7 | The level of expressed mRNA in the presence of chemical substance/The level of expressed mRNA in the absence of chemical substance (yeast gene YGR062C, cells incubated two hours with the chemical substance, 25° C., YPD medium): 1.0 | The level of expressed mRNA in the presence of chemical substance/The level of expressed mRNA in the absence of chemical substance (yeast gene YGR087C, cells incubated two hours with the chemical substance): 15.0 | The level of expressed mRNA in the presence of chemical substance/The level of expressed mRNA in the absence of chemical substance (yeast gene YGR174C, cells incubated two hours with the chemical substance): 1.6 | The level of expressed mRNA in the presence of chemical substance/The level of expressed mRNA in the absence of chemical substance (yeast gene YGR192C): 1.0 | The level of expressed mRNA in the presence of chemical substance/The level of expressed mRNA in the absence of chemical substance (yeast gene YGR244C): 1.2 | The level of expressed mRNA in the presence of chemical substance/The level of expressed mRNA in the absence of chemical substance (yeast gene YGR254W): 1.3 | The level of expressed mRNA in the presence of chemical substance/The level of expressed mRNA in the absence of chemical substance (yeast gene YHR179W): 2.3 | The level of expressed mRNA in the presence of chemical substance/The level of expressed mRNA in the absence of chemical substance (yeast gene YIL160C): 2.4 | The level of expressed mRNA in the presence of chemical substance/The level of expressed mRNA in the absence of chemical substance (yeast gene YIR031C, cells incubated two hours with the chemical substance): 1.6 | The level of expressed mRNA in the presence of chemical substance/The level of expressed mRNA in the absence of chemical substance (yeast gene YJL052W): 0.9 | The level of expressed mRNA in the presence of chemical substance/The level of expressed mRNA in the absence of chemical substance (yeast gene YJL121C, cells incubated two hours with the chemical substance): 0.5 | The level of expressed mRNA in the presence of chemical substance/The level of expressed mRNA in the absence of chemical substance (yeast gene YJL166W, cells incubated two hours with the chemical substance): 1.5 | The level of expressed mRNA in the presence of chemical substance/The level of expressed mRNA in the absence of chemical substance (yeast gene YJL216C, cells incubated two hours with the chemical substance): 4.7 | The level of expressed mRNA in the presence of chemical substance/The level of expressed mRNA in the absence of chemical substance (yeast gene YJR009C): 1.7
